# From paper PMC3527734, “Peripheral injections of melanin-concentrating hormone receptor 1 antagonist S38151 decrease food intake and body weight in rodent obesity models” (Frontiers in Endocrinology, 2012)
# Where a SMILES comes first, the peptide text is derived from it.
# Assays:
# [1] = tested on: Zucker fa/fa rats; assay: acute i.p. administration, food intake in fasted rats; assay type: in vivo, rat; conditions: S38151 30 mg/kg i.p.
# Method: Zucker fa/fa rats were habituated in the same conditions as Wistar rats (described in section “Acute Central Peptide Administration and Feeding Studies in Wistar Rats”). At 09:00 on the day of study, after fasting for 24 h, either vehicle (normal saline) or S38151 [30 mg/kg (20 μmol/kg)] was administered intraperitoneally (i.p.).
# Figure 6 The effect of S38151 on food intake in Zucker fa/fa rats after acute peripheral administration. Rats were fasted for 24 h, and then injected (i.p.) at the beginning of the light phase with vehicle (normal saline) or 30 mg/kg S38151. Cumulative food intake was measured 1, 2, 4, 6, and 24 h after injection. Results are expressed as mean ± SEM (n = 16 rats per group).
# [2] = tested on: Zucker fa/fa rats; assay: daily i.c.v. administration, feeding, drinking, body weight and motility; assay type: in vivo, rat
# Excerpt: Wistar and Zucker fa/fa rats were anesthetized with Forène (Abbott Laboratories, Queenborough, UK), and a stainless steel guide cannula (Plastic Products Co, Roanoke, Va, USA) was stereotaxically implanted into the right lateral ventricle at the following coordinates relative to the bregma: AP −0.8 mm, L = −1.2 mm, and V = −3.5 mm. After a 7-day recovery period, during which the animals were handled each day to minimize non-specific stress, they were lightly anesthetized with Forène. Human/mouse/rat MCH (1 μg in a volume of 2.5 μ L, Bachem, Voisins-le-Bretonneux, France) or an equivalent volume of artificial cerebrospinal fluid (CSF) was then injected through the intraventricular cannula. Immediately after injection, the animals quickly recovered and were returned to their home cages. Only those animals responding within 2 h with a robust increase in food intake, indicating correct cannula placement, were used in the experiments described below. Two days after MCH injection, the rats were randomly assigned to different groups and studied in one of the following protocols.
# The TSE Drinking and Feeding Monitor system was used to analyze ingestive behavior in these experiments (TSE Technical & Scientific Equipment GmbH, Bad Homburg, Germany). The rats' motility was also determined in these experiments using the MoTil® system (TSE). Zucker fa/fa rats were placed individually into plastic cages to which were attached both a feeding and a drinking sensor. The animals were habituated to normal food (A03 UAR, Orge, France) and water for at least 2 weeks before experimentation. […] The injections were repeated daily for a total of 7 days. After 7 days, the injections were stopped and each measured parameter was followed during a 5-day washout period.
# Figure 4 The effects of repeated daily central administration of S38151 on food intake, water intake, body weight, and motility in Zucker fa/fa rats. One hour prior the beginning of the dark phase, different doses of S38151 (5, 10, or 20 nmol/kg) or vehicle were injected (i.c.v.) once daily for 7 days, followed by a washout period of 5 days. […] Repeated measures Two-Way ANOVA (treatment × time) was performed with a repeated measure of the factor “time.” Significant treatment and interaction effects are shown on the graph. ^+P < 0.05; ^++P < 0.01; ^+++P < 0.001.
# [3] = detection of compound in brain of treated animals; assay type: in vivo; conditions: brains from S38151-treated (i.p.-injected) animals, LC-MS/MS, data not shown
# Method: First, S38151 was incubated for 16 h at 4°C and 37°C in mouse plasma or in TRIS buffer (pH 7.4). Next, plasma proteins were precipitated with two volumes of acetonitrile. After centrifugation and dilution with a water/acetonitrile mixture (50/50 v/v), the supernatant was injected onto a triple quadripole mass spectrometer (Ultima, Micromass WATERS Corporation, Milford, USA). The liquid chromatographic system consisted of an Agilent 1100 analytic pump (Agilent, Santa Clara, USA) equipped with an Alpha Mos CTC autosampler (Alpha Mos, Toulouse, France). Mass detection was performed using the m/z transition 743.5 > 163, in positive electrospray. A second stability study was performed at a lower concentration (1 μM) and for 4 h, with the following sampling times: 0, 15, 45, 90, and 240 min. At each sampling time, 50 μL of plasma were precipitated with two volumes of acetonitrile, and after centrifugation were directly injected onto the LC-MS/MS system. The same treatment was used for the buffer samples.
# Furthermore, we were unable to detect traces of this pseudopeptide in the brains of i.p.-injected animals. Similarly, its effect could not be correlated with aversion owing to a bad test.
# [4] = tested on: Zucker fa/fa rats; conditions: cyclophosphamide 100 mg/kg i.p., S38151 20 nmol/kg (28 μg/kg) i.c.v., n = 8
# Method: These experiments were performed with modifications to previously described methods (Madden et al., [1999]). Rats were individually housed in wire-bottomed plastic cages with free access to both food pellets (6 mm diameter A03 UAR) and kaolin powder. The food pellets were presented in a small porcelain bowl on the floor of the cage. The kaolin powder was presented in a metal feeding dish attached to the inside of the cage. After a 2-week habituation period to these conditions, the animals were randomized into five treatment groups based on the quantity of food eaten during the stabilization period. In addition, those rats that consistently spilled the kaolin powder were eliminated from the study. One day after randomization, the animals were injected just before the beginning of the dark phase with either cyclophosphamide (100 mg/kg, i.p.), or S38151 [20 nmol/kg (28 μg/kg) i.c.v.] or vehicle [(artificial CSF) i.c.v.]. After injection, the quantity of kaolin and food ingested during the following 24-h period was determined. Food or kaolin spilled by the animals was collected at the end of the experiment, and total food and kaolin intake measurements were corrected for this loss.
# Figure 5 The effects of S38151 on conditioned taste aversion and pica in Zucker fa/fa rats. (A) In the conditioned taste aversion test, after a period of habituation of the animals to the experimental protocol, Zucker fa/fa rats were presented with 0.2% saccharine for 20 min after drinking water was removed from their cages for 18 h (test day 0). Animals were then injected (i.p.) with vehicle or lithium chloride, or with S38151 (20 nmol/kg, i.c.v). On test days 4, 7, 11, and 14, rats were presented with 0.2% saccharine, and the quantity consumed during a 20-min period was determined. Results are expressed as mean ± SEM (n = 10–11 rats per group). […] (B) In the pica test, Zucker fa/fa rats were injected (i.c.v.) with 20 nmol/kg S38151, or an equivalent volume of artificial cerebrospinal fluid vehicle. Food and kaolin intake during the following 24-h period were each measured. Results are expressed as mean ± SEM (n = 8 rats per group).
structure (smiles),measurement,setting,value
"CSCC[C@@H]1NC(=O)[C@@H](NC(=O)c2ccc(NC(=N)N)cc2)CSSC[C@@H](C(=O)N[C@@H](Cc2c[nH]c3ccccc23)C(=O)O)NC(=O)[C@@H]2CCCN2C(=O)[C@H](CCCNC(=N)N)NC(=O)[C@H](Cc2ccc(O)cc2)NC(=O)[C@H](C(C)C)NC(=O)[C@H](CCCNC(=N)N)NC(=O)[C@H](CC(C)C)NC1=O [S38151, p-guanidinobenzoyl-(Des-Gly10)-MCH (7–17)] (HELM PEPTIDE1{[N=C(N)Nc1ccc(C(=O)[*:2])cc1].C.M.L.R.V.Y.R.P.C.W}$PEPTIDE1,PEPTIDE1,2:R3-10:R3$$$V2.0; C-terminus assumed)","food intake, first hour","[1]; 24-h fasted Zucker fa/fa rats, control 3.6 ± 0.4 g, mean ± SEM, n = 16",0.09 ± 0.06 g
same,inhibition of food consumption within 1 h,[1]; Zucker fa/fa rats,complete inhibition
same,decrease in food intake up to 24 h after drug administration,[1]; cumulative food intake versus control,maintained statistical significance
same,body weight gain during the washout period,[2]; 5-day washout after 10 nmol/kg S38151 i.c.v. for 7 days,remained significantly less than control values
same,motility during the washout period,[2]; 5-day washout after 20 nmol/kg S38151 i.c.v. for 7 days,remained significantly elevated
same,food intake,"[2]; S38151 5, 10, 20 nmol/kg i.c.v. daily for 7 days, significant only at 20 nmol/kg, n = 8",dose-dependent inhibition
same,motility,[2]; S38151 10 and 20 nmol/kg i.c.v. daily for 7 days,significantly increased
same,body weight gain,"[2]; S38151 10 and 20 nmol/kg i.c.v. daily for 7 days, compared with control rats",dose-dependent reduction
same,water intake,"[2]; S38151 i.c.v. daily for 7 days, all injected doses except the 5 nmol dose",significantly inhibited
same,amount of compound detectable in the brain,[3],none was detected
same,"kaolin intake, 24 h, pica test",[4]; vehicle 0.05 ± 0.01 g,did not significantly alter
same,"food intake, 24 h, pica test",[4]; vehicle 27 ± 1 g,significantly reduced
